“Also recorded” adds a separate entry of the source. Where a name gives a salt, the structure may show the parent alone.
Key:
[1] = tested on: lipocalin-2; assay: ELISA monitoring of lipocalin-2 in feces; type: in vivo, mice; settings: WT animals treated with NOD agonists
Description: A. Enumeration of bacterial colonies in splenocytes 48 hrs post-CTX therapy in various mouse backgrounds. Splenic cells (left panel) and mesenteric LN (middle panel) harvested from C57BL/6 WT or NOD1^−/−×NOD2^−/− mice were cultured in anaerobic conditions for 48 hours. Bacterial outgrowth was enumerated (number of colonies/plate and frequencies of positive plates/animal (right panel)) and eventually characterized by mass spectrometry for bacterial identification. B. Flow cytometric analyses of pTH17 cells. CD4^+ T cells co-expressing IFN[…]γ in the gate of live IL-17+ T splenocytes in WT versus NOD1 or NOD2 deficient mice C. Idem as in B. but experiment performed in WT animals treated with NOD agonists (MDP and TriDAP) according to the experimental setting aligned in the upper part of the graph. D. ELISA monitoring of lipocalin-2 in the feces of mice according to the experimental setting aligned in C. A representative experiment is shown for A and D. Concatenated data from 2-3 individual experiments including 3 mice/group are depicted in B-C. Anova statistical analyses: *p<0.05, **p<0.01, ***p<0.001.

[2] = tested on: splenic pTh17 cells; assay: Flow cytometry of splenic pTh17 / TH1 / Tc1 cells; settings: for CTX-mediated pTH17 in the spleen: WT animals treated with NOD agonists
Description: For cross-linking experiment, 2×10^5 total splenocytes per well (after red cell lysis) were incubated in MaxiSorp plates (Nunc) precoated with anti-CD3ε mAb (145-2C11) (0.5 μg per well; eBioscience) and/or anti-CD28 mAb (37.51) (2 μg/ml; BD). The supernatants were assayed at 48 h by ELISA for mouse IL-17A (eBioscience) and IFNγ (BD). […] For intracellular, cells were incubated for 4 h at 37° C. with 50 ng/ml of PMA, 1 μg/ml of ionomycin and BD Golgi STOP™. After membrane staining, cells were stained with anti-IL-17A, IFNγ, T-bet and RORγt using eBioscience FoxP3/Transcription factor staining buffer set.

[3] = tested on: splenocytes; assay: TCR cross-linking of splenocytes, IL-17 and IFNγ ELISA; type: in vivo, mice
[4] = tested on: MCA205 sarcomas; type: in vivo, C57BL/6 mice
[5] = tested on: small intestine epithelium; settings: mouse, in vivo
Description: The whole small intestine (duodenum, jejunum and ileum) was removed, cleaned from fecal content and fixed in 4% of PFA for 1 h. Re-hydration of the tissue was performed in 15% sucrose for 1 h and in 30% sucrose overnight. Depending on the experiment, the small intestine was entirely rolled, or cut into small pieces, then embedded in optimum cutting temperature (OCT) compound (Sakura), snap frozen and longitudinal or transversal […] were prepared.
For histological analyses, the longitudinal sections were counterstained with hematoxilin and eosin. For the histological quantitative analyses, inflammatory foci, altered villi and the thickness of lamina propria were scored for each section, while the number of goblet cells was counted for each villus. […] Then, a rabbit polyclonal antibody against the lysozyme protein (1:500 for 1 h, Thermo Scientific) and ALEXA FLUOR 488 Fragment of goat anti-rabbit IgG (1:300 for 1 h, Molecular Probes) were used. All steps were performed at room temperature. Lysozyme-positive areas were quantified on mosaic images using the Histolab software (Microvision Instruments). The quantification of Paneth cells was performed measuring the average area of the Lysozyme-positive clusters (group of Paneth cells) as well as the emission/μm^2 of those clusters (not shown).

[6] = tested on: commensal bacteria; type: in vivo, mice; settings: 48 h after treatment
Description: Mesenteric lymph nodes and spleens were aseptically removed, smashed in PBS and plated onto COS agar plates (BioMérieux), for aerobic and anaerobic growth. After 48 h of culture, single colonies were isolated and stocked in glycerol at −80° C.
(§1) Serial dilutions of feces from naïve mice or tumor bearers treated with NaCl or CTX, vancomycin or broad spectrum antibiotics (ATB) (ampicillin+streptomycin+colistin), were plated onto COS agar plates and after 48 h, single colonies were isolated and Gram staining was performed. The identification of specific bacteria was accomplished through the combination of morphological tests and the analysis through VITEK® automated system (BioMérieux, France) and verified in mass spectrometry (MALDI-TOF, see below) performed at Pasteur Institute, Paris, France.

[7] = tested on: tumor-infiltrating lymphocytes; assay: Flow cytometry of tumor-infiltrating lymphocytes; type: in vivo, mice
[8] = tested on: fecal commensal bacteria; assay: Culture of fecal commensals under antibiotics; type: in vivo, mice; settings: antibiotic in drinking water, tumor bearers
Description: Mice were treated with antibiotics 2-3 weeks before tumor implantation and continued until the end of the experiment. A mix of ampicillin (1 mg/ml)+streptomycin (5 mg/ml)+colistin (1 mg/ml) (Sigma-Aldrich) or vancomycin (0.25 mg/ml) or colistin alone (2·10^3 U/ml) were added in sterile drinking water. Solutions and bottles were changed 2-3 times a week.
as §1

[9] = tested on: MC38-OVAdim tumor cells; assay: OVA vaccine + CTX, rechallenge with MC38-OVAdim tumor cells; type: in vivo, C56BL/6 mice; settings: antibiotics 20 days, rechallenge at day 50
Description: FIG. 38: Anticancer vaccines combined with CTX promote a long lasting anticancer immunity which depends on gut Gram negative bacteria. A. Experimental setting. C56BL/6 mice were treated with broad spectrum ATB (ampicilline, colistine, streptomycine) or vancomycine (which only kills Gram+ bacteria) or colistine (which only kills Gram− bacteria) for 9 days, received one ip, injection of CTX (100 mg/kg), followed 3 days later by vaccination with OVA protein in CpG adjuvants (or mock vaccines). ATB were stopped after 20 days and animals were left untreated under observation for 1 month. At day 50, all mice were rechallenged with a lethal dose of 10× times the MTD of MC38-OVA^dim tumor cells sc. B. Animals were scored on the basis of tumor outgrowth (featuring no or weak memory T cell response). The percentages of tumor-free mice was recorded for 2 experiments comprising 5 mice/group.*Anova test: p<0.05.

[10] = tested on: lung adenocarcinoma; assay: Lung adenocarcinoma-bearing KP mice treated with chemotherapy
Description: Mice were either left untreated or received chemotherapy (d84, d91 and d98) in absence or presence of 0.25 mg/ml vancomycin (mixed into drinking water starting on d77 and until the end of the experiment; antibiotic-containing water was replaced biweekly). Tumor volumes were quantified on d73 and 100 (equivalent of ‘pre’ and ‘post’ chemotherapy) in anesthetized mice by noninvasive imaging as described before (Cortez-Retamozo et al., 2013).

What does the source list for `CC(=O)N[C@H]1C(O)O[C@H](CO)[C@@H](O)[C@@H]1O[C@H](C)C(=O)N[C@@H](C)C(=O)N[C@H](CCC(=O)O)C(N)=O` (mixture of isomers) [myramyl dipeptide]?
release of the antimicrobial peptide lipocalin-2 in stools [1]: promoting the release; CTX-mediated pTH17 in the spleen [2]: reducing

How did the “release of the antimicrobial peptide lipocalin-2 in stools” value [1] turn out when `C[C@H](N)C(=O)N[C@H](CCC(=O)NC(CCCC(N)C(=O)O)C(=O)O)C(=O)O` (some centres unmarked) [TriDAP] was run?
The value was “promoting the release”.

And the “CTX-mediated pTH17 in the spleen” value [2]?
The value was “reducing”.

Which “polarization of splenic CD4+ T cells towards Th1 and Th17 pattern” value ([3]; day 7 after treatment) does the source give for `COc1cccc2c1C(=O)c1c(O)c3c(c(O)c1C2=O)C[C@@](O)(C(=O)CO)C[C@@H]3O[C@H]1C[C@H](N)[C@H](O)[C@H](C)O1` [doxorubicin, Doxorubicin hydrochloride] here?
The value was “not found”.

What about the “dependence of tumor growth reduction on gut commensals” value ([4]; SPF, ATB-treated and germ-free mice) of the same molecule?
The value was “does not require gut commensals for reducing tumor growth”.

What about the “induction of pTh17 cells in the spleen” value ([2]; Doxo i.p., splenocytes 7 days later) of the same molecule?
Its value is “failed to induce pTh17 cells in the spleen”.

What about the “inflammatory status of the gut epithelial barrier (histology)” value [5] of the same molecule?
Its value is “shortening of small intestinal villi, discontinuities of the epithelial barrier, interstitial edema and focal accumulation of mononuclear cells in the lamina propria”.

What about the “translocation of commensal bacteria into mesenteric lymph nodes and spleens, compared with CTX” value [6] of the same molecule?
Its value is “less so”.

`CN[C@H](CC(C)C)C(=O)N[C@H]1C(=O)N[C@@H](CC(N)=O)C(=O)N[C@H]2C(=O)N[C@H]3C(=O)N[C@H](C(=O)N[C@H](C(=O)O)c4cc(O)cc(O)c4-c4cc3ccc4O)[C@H](O)c3ccc(c(Cl)c3)Oc3cc2cc(c3O[C@@H]2O[C@H](CO)[C@@H](O)[C@H](O)[C@H]2O[C@H]2C[C@](C)(N)[C@H](O)[C@H](C)O2)Oc2ccc(cc2Cl)[C@H]1O` [vancomycin] was tested. Which “effect on CTX-induced Th17 conversion” value ([3]; antibiotic in drinking water) did it give?
The value was “reduced”.

What about the “frequencies of tumor-infiltrating CD3+ T cells and Th1 cells” value ([7]; MCA205 tumors, 8 days post-CTX) of the same molecule?
Its value is “reduced”.

What about the “γδT17 cells in tumor beds post-therapy” value ([7]; chemotherapy-treated tumors) of the same molecule?
Its value is “devoid”.

And the “repertoire of commensal bacteria in feces” value [8]?
Its value is “biased the repertoire of commensal bacteria towards distinct commensal species”.

And the “effect on long term protection of an OVA-based cancer vaccine + CTX against lethal challenge” value [9]?
Its value is “did not prevent”.

What about the “effect on the anti-tumor efficacy of CTX against MCA205 sarcoma” value ([4]; 3 week conditioning with antibiotic) of the same molecule?
The value was “compromised; also recorded: reduced”.

What about the “effect on CTX-induced accumulation/differentiation of pTh17 in the spleen” value ([2]; MCA205 tumor bearers, 7 days after CTX) of the same molecule?
The value was “prevented; also recorded: blunts”.

What about the “intratumoral CD8+ T effector/Foxp3+ regulatory T cell ratio” value ([10]; Chemo+Vanco) of the same molecule?
The value was “reduced”.

And the “effect on the anticancer efficacy of CTX-based chemotherapy” value ([10]; vancomycin 0.25 mg/ml in drinking water, oxaliplatin plus CTX)?
Its value is “inhibitory role; also recorded: compromised”.

How did the “repertoire of commensal bacteria in feces” value [8] turn out when colistin was run?
Its value is “promoted the outgrowth of E. faecalis”.

What about the “effect on long term protection of an OVA-based cancer vaccine + CTX against lethal challenge” value [9] of the same molecule?
The value was “did”.
